According to patent US20030203959A1, “Novel modulators of potassium channels” (4SC AG, priority 2002, published 2003):

What follows are compounds tested against BK channels, cloned hSlo (α-hSlo and β-bSlo) in CHO cells (Homo sapiens, UniProt Q12791) (assay: Em-Assay (voltage sensitive dye DiBAC(4)3 fluorescence, membrane potential)). Conditions: ratio of the compound effect (50 μM) compared to the maximal effect of NS004 (25 or 50 μM); hSlo transfected CHO cells.
Type: cell-based
From the text: The large conductance, voltage dependent and Ca^2+-activated potassium channel BK is a potassium selective ion channel and belongs to the subfamily of KCa channels. Four BK alpha-subunits form a functional channel that can be regulated by intracellular Ca^2+ concentration, membrane voltage, and other mechanisms like phosphorylation states or beta subunits. To test the biological activity of the compounds, we applied two different techniques, a fluorescence based assay using a voltage sensitive dye (Em-Assay) as well as exploiting electrophysiological methods.
CHO cells permanently transfected with cloned hSlo (α-hSlo and β-bSlo), yielding typical BK potassium currents (Zhou et al., Pflügers Arch., 436: 725-734 (1998), were used for the evaluation of compound activity. Activation or inhibition of BK channels in these cells leads to a change of the electrochemical gradient causing a hyperpolarized or depolarised membrane potential, respectively.
To determine changes in the membrane potential of the cells we used the voltage sensitive dye DiBAC(4)3 (Molecular Probes) in a kinetic assay system using a fluorescent plate reader (Manning and Sontheimer, J. Neurosci. Meth., 91: 73-81 (1999). The anionic bis-oxonol DiBAC(4)3 is a voltage sensitive dye which partitions from the extracellular environment into the cell where it reversibly binds to intracellular proteins, a kinetic process depending on the membrane potential of the cell. At depolarised potentials (i.e. at a reduced K^+ efflux due to blocked K^+ channels) the dye accumulates in the cell leading to an increased fluorescence intensity, due to its increased fluorescence if bound to cellular proteins. At hyperpolarized potentials (i.e. at an increased K^+ efflux due to the opening of K^+ channels), the dye partitions out of the cell causing a decreased fluorescence intensity.
hSlo transfected CHO cells where maintained in DMEM supplemented with 10% FCS, 250 μg/ml Geneticin, 100 μg/ml Hygromycin, 1×HT-Supplement, and 1×Non-essential Amino Acids and cultured in a humidified CO2 incubator. After trypsination, cells where plated with a density of 5×10^4 cells per well on a clear 96-well plate and incubated for 24 h. Cells where washed once with PBS, once with PBS containing 20 mM HEPES (adjusted to pH 7.4 with NaOH) and 2 μM DiBAC(4)3 (DPBS-DiMAC solution). 180 μl of the dPBS-DiBAC solution was then added to the cells and the plate incubated for 30-60 min at 37° C. During this time the dye could partition into the cells and reach a certain steady-state distribution, depending on the resting membrane potential. Test and reference compounds were stored as DMSO stock solutions and diluted in dPBS-DiBAC solution to the desired concentration.
Fluorescence intensity (Ex.: 485 nm/Em: 520 nm) of each well was detected in the plate reader (Fluostar, BMG) every 60 seconds. After recording the baseline fluorescence for 7 minutes, 20 μl test and reference compounds were added and the fluorescence intensity was detected for additional 15 minutes. Background was subtracted, data values were normalized and expressed as a change in fluorescence intensity against time. The change in fluorescence intensity caused by the test compounds was evaluated compared to the effect of the reference compound NS004, and the ratio was determined (see Table I).

BK channels, cloned hSlo (α-hSlo and β-bSlo) in CHO cells, sequence (Q12791 whole entry): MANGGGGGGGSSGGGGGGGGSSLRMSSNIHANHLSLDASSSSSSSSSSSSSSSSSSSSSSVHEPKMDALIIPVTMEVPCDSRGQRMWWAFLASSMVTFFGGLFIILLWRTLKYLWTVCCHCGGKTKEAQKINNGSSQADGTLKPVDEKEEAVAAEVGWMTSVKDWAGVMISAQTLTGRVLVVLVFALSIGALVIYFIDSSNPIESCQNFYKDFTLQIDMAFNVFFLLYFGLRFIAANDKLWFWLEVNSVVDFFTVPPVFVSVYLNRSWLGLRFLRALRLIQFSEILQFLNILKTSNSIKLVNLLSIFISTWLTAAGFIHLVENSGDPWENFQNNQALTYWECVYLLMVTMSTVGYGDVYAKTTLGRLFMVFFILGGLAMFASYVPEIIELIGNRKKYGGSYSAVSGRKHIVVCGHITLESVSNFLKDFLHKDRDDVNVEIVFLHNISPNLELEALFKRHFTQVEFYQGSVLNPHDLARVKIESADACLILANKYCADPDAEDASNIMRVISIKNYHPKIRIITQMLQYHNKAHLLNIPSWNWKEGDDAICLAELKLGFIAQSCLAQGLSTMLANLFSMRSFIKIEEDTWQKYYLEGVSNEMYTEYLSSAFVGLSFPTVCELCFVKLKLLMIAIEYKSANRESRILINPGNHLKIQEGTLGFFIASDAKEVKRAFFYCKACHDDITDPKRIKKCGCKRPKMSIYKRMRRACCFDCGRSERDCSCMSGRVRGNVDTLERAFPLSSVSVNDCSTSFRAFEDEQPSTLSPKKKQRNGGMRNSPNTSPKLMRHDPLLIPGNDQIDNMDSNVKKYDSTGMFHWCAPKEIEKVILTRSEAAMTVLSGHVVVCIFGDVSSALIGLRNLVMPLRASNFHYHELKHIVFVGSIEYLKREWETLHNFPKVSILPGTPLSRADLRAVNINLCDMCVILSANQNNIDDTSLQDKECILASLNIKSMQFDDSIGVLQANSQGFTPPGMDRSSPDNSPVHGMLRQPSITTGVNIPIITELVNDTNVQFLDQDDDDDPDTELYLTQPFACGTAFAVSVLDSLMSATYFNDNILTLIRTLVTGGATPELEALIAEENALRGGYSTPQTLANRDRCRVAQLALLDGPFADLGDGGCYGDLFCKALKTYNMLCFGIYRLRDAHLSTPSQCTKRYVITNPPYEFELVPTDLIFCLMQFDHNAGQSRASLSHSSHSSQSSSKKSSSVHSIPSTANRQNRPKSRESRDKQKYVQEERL
BK channels, cloned hSlo (α-hSlo and β-bSlo) in CHO cells, sequence (Q28067 whole entry partner): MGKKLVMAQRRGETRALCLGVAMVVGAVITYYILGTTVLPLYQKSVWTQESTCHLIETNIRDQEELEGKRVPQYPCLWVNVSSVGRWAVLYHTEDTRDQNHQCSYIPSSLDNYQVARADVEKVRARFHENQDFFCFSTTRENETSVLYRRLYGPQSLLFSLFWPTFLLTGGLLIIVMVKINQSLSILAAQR

SMILES	Em effect
COc1ccccc1-c1cccc2[nH]ccc12 [Compound 24]	+ (0-1=+)
FC(F)(F)c1ccc(-c2ccc3[nH]ccc3c2)cc1 [Compound 4]	++ (>1=++)
c1cc(-c2ccsc2)c2cc[nH]c2c1 [Compound 23]	+ (0-1=+)
FC(F)(F)c1ccc(-c2cccc3cc[nH]c23)cc1 [Compound 8]	+ (0-1=+)
FC(F)(F)Oc1cccc(-c2cccc3cc[nH]c23)c1 [Compound 38]	+ (0-1=+)
Fc1ccc(-c2cccc3cc[nH]c23)c(F)c1 [Compound 10]	+ (0-1=+)
Clc1ccccc1-c1ccc2[nH]ccc2c1 [Compound 30]	++ (>1=++)
Clc1ccccc1-c1cccc2cc[nH]c12 [Compound 9]	+ (0-1=+)
FC(F)(F)Oc1ccc(-c2ccc3[nH]ccc3c2)cc1 [Compound 1]	++ (>1=++)
COc1ccccc1-c1ccc2[nH]ccc2c1 [Compound 5]	++ (>1=++)
Fc1ccc(-c2ccc3[nH]ccc3c2)c(F)c1 [Compound 3]	++ (>1=++)
FC(F)(F)Oc1cccc(-c2ccc3[nH]ccc3c2)c1 [Compound 34]	+ (0-1=+)
Clc1ccc(-c2ccc3cc[nH]c3c2)s1 [Compound 13]	+ (0-1=+)
CC(C)(C)c1ccc(-c2ccc3[nH]ccc3c2)cc1 [Compound 32]	+ (0-1=+)
Fc1cc(-c2cccc3[nH]ccc23)ccc1-c1ccccc1 [Compound 21]	+ (0-1=+)
FC(F)(F)c1ccc(-c2cccc3[nH]ccc23)cc1 [Compound 25]	+ (0-1=+)
COc1ccccc1-c1ccc2cc[nH]c2c1 [Compound 19]	+ (0-1=+)
Fc1ccc(-c2ccc3cc[nH]c3c2)c(F)c1 [Compound 16]	+ (0-1=+)

SMILES	Em effect
Clc1ccccc1-c1cccc2[nH]ccc12 [Compound 26]	+ (0-1=+)
Clc1ccccc1-c1ccc2cc[nH]c2c1 [Compound 15]	+ (0-1=+)
FC(F)(F)c1ccc(-c2ccc3cc[nH]c3c2)cc1 [Compound 14]	+ (0-1=+)
COc1ccc(-c2ccc3cc[nH]c3c2)cn1 [Compound 35]	+ (0-1=+)
O=Cc1ccccc1-c1ccc2[nH]ccc2c1 [Compound 31]	+ (0-1=+)
Clc1ccc(-c2cccc3cc[nH]c23)s1 [Compound 6]	+ (0-1=+)
c1ccc(COc2ccc(-c3cccc4[nH]ccc34)cc2)cc1 [Compound 36]	+ (0-1=+)
CN(C)c1ccc(-c2ccc3[nH]ccc3c2)cc1 [Compound 2]	+ (0-1=+)
CS(=O)(=O)c1ccc(-c2ccc3[nH]ccc3c2)cc1 [Compound 29]	+ (0-1=+)
Clc1ccc(-c2cccc3[nH]ccc23)s1 [Compound 22]	+ (0-1=+)
FC(F)(F)Oc1ccc(-c2cccc3[nH]ccc23)cc1 [Compound 28]	+ (0-1=+)
CC(C)(C)c1ccc(-c2cccc3[nH]ccc23)cc1 [Compound 39]	++ (>1=++)
O=[N+]([O-])c1ccccc1-c1ccc2[nH]ccc2c1 [Compound 33]	+ (0-1=+)
COc1ccccc1-c1cccc2cc[nH]c12 [Compound 7]	+ (0-1=+)
CN(C)c1ccc(-c2ccc3cc[nH]c3c2)cc1 [Compound 17]	++ (>1=++)
FC(F)(F)c1cc(-c2cccc3[nH]ccc23)cc(C(F)(F)F)c1 [Compound 20]	+ (0-1=+)
CN(C)c1ccc(-c2cccc3cc[nH]c23)cc1 [Compound 11]	++ (>1=++)
Fc1cccc(-c2ccc3cc[nH]c3c2)c1 [Compound 37]	+ (0-1=+)

The next lines start with the values.

Em effect	SMILES
++ (>1=++)	COc1ccc(-c2ccc3[nH]ccc3c2)cc1 [Compound 54]
+ (0-1=+)	c1ccc(Oc2ccc(-c3cccc4[nH]ccc34)cc2)cc1 [Compound 57]
+ (0-1=+)	FC(F)(F)c1cc(-c2ccc3cc[nH]c3c2)cc(C(F)(F)F)c1 [Compound 61]
++ (>1=++)	Clc1ccc(-c2ccc3[nH]ccc3c2)cc1 [Compound 46]
+ (0-1=+)	COc1cccc(-c2cccc3[nH]ccc23)c1 [Compound 56]
+ (0-1=+)	c1cc2cc(-c3ccc4[nH]ccc4c3)ccc2[nH]1 [Compound 43]
++ (>1=++)	COc1ccc(-c2ccc3[nH]ccc3c2)c(OC)c1 [Compound 48]
++ (>1=++)	c1cc2cc(-c3ccc4cc[nH]c4c3)ccc2[nH]1 [Compound 53]
+ (0-1=+)	c1cc(-c2ccc3[nH]ccc3c2)c2cc[nH]c2c1 [Compound 47]
+ (0-1=+)	Clc1ccc(-c2ccc3cc[nH]c3c2)cc1 [Compound 58]
++ (>1=++)	c1cc2cc(-c3ccc4c(c3)OCO4)ccc2[nH]1 [Compound 50]
+ (0-1=+)	Fc1ccc(-c2cccc3[nH]ccc23)c(F)c1 [Compound 55]
++ (>1=++)	COc1c(C)cc(-c2ccc3[nH]ccc3c2)cc1C [Compound 51]
+ (0-1=+)	COc1ccc(-c2cccc3[nH]ccc23)cc1 [Compound 42]
++ (>1=++)	c1ccc2c(-c3ccc4[nH]ccc4c3)cccc2c1 [Compound 44]
+ (0-1=+)	CC(=O)c1cccc(-c2ccc3[nH]ccc3c2)c1 [Compound 49]
+ (0-1=+)	c1ccc(-c2ccc3[nH]ccc3c2)nc1 [Compound 52]
+ (0-1=+)	c1ccc(-c2ccc3[nH]ccc3c2)cc1 [Compound 59]
+ (0-1=+)	CC(C)(C)c1ccc(-c2ccc3cc[nH]c3c2)cc1 [Compound 62]
+ (0-1=+)	c1ccc(-c2cccc(-c3ccc4cc[nH]c4c3)c2)cc1 [Compound 60]

What follows are compounds tested against BK currents, cloned α-hSlo and β-bSlo in CHO cells (Homo sapiens, UniProt Q12791) (assay: Electrophysiological studies (whole-cell patch-clamp, BK currents)). Conditions: ratio of current increase after application of compound (20 μM) relative to control current before application, steady-state.
Type: cell-based
Experimental: CHO cells permanently transfected with cloned α-hSlo and β-bSlo were maintained as described above and used for electrophysiologial characterisation. The whole-cell configuration of the patch-clamp technique was used to determine the effect of modulators on BK currents in these cells. The cell line expressing functional BK currents (Zhou et al., Pflügers Arch 436, p.725 (1998)) were plated onto glass cover slips with a density of 1-5×10^4 cells/cover slip, incubated (37° C., 5% CO2) and used for patch-clamp experiments within 24-48 h. Cells were bathed in mammalian ringer solutions containing (in mM): 160 NaCl, 4.5 KCl, 2CaCl2, 1 MgCl2, 10 HEPES, adjusted to pH 7.4, 290-310 mOsim. The internal pipette solution contained (in mM): 160 KCl, 2CaCl2, 1 MgCl2, 10 HEPES, EGTA was added to reach a free [Ca^2+]internal=1×10 ^−6M, adjusted to pH 7.2, 290-310 mOsm.
Borosilicate pipettes with a resistance of 2-3 MΩ were filled with the internal solution and mounted on an appropriate holder. Prior to measurements a recording chamber was mounted onto the cell-plated cover slips and the cells were perfused with a simple syringe driven perfusion system. Compounds were added in the final concentration ([…]) to the bath solution using the same system. An EPC-9 patch-clamp amplifier with Pulse and PulseFit software (HEKA) was used to record and analyze currents.
After addition of the compounds to the bath solution their modulating effect was determined by the increase or decrease of specific BK currents after reaching steady-state relative to the BK current before application of drugs (see Table II).

BK currents, cloned α-hSlo and β-bSlo in CHO cells, sequence (Q12791 whole entry): as the sequence (Q12791 whole entry) above
BK currents, cloned α-hSlo and β-bSlo in CHO cells, sequence (Q28067 whole entry partner): as the sequence (Q28067 whole entry partner) above

SMILES	Effect (ratio of current increase)
FC(F)(F)c1ccc(-c2ccc3[nH]ccc3c2)cc1 [Compound 4]	++ (>1,1-1.2=++)
Clc1ccccc1-c1ccc2[nH]ccc2c1 [Compound 30]	+ (1-1.1=+)
FC(F)(F)Oc1ccc(-c2ccc3[nH]ccc3c2)cc1 [Compound 1]	++ (>1,1-1.2=++)
COc1ccccc1-c1ccc2[nH]ccc2c1 [Compound 5]	++ (>1,1-1.2=++)
Fc1ccc(-c2ccc3[nH]ccc3c2)c(F)c1 [Compound 3]	+++ (>1.2=+++)
CN(C)c1ccc(-c2ccc3[nH]ccc3c2)cc1 [Compound 2]	+ (1-1.1=+)
Clc1ccc(-c2cccc3[nH]ccc23)s1 [Compound 22]	++ (>1,1-1.2=++)
